# Laboratory results from ChEMBL document CHEMBL5252530, “Biological importance of structurally diversified chromenes” (Eur J Med Chem, 2016).
# Legend:
# [1] = target: 5-hydroxytryptamine receptor 1B (Rattus norvegicus, UniProt P28564); test: Binding affinity to rat 5-HT1B
# [2] = Binding affinity to bovine 5-HT1B; parameters: species or system Bos taurus
# [3] = Selectivity ratio of Ki for bovine 5-HT1B to rat 5-HT1B
# KB [4] = test: Cytotoxicity against human KB cells assessed as inhibition of cell growth incubated for 72 hrs by neutral red dye based colorimetric assay; assay type: functional
# [5] = target: Chymotrypsinogen A (Bos taurus) (UniProt P00766); test: Inactivation of bovine alpha-chymotrypsin assessed as Ki/KI ratio at pH 7.5
# [6] = target: Chymotrypsinogen A (Bos taurus) (UniProt P00766); test: Inactivation of bovine alpha-chymotrypsin assessed as Ki/KI ratio
# Planktothrix perornata = test: Algicidal activity against Planktothrix perornata; assay type: functional, organism-based
# [7] = tested on: Selenastrum capricornutum; test: Algicidal activity against Selenastrum capricornutum; assay type: functional, organism-based
# [8] = Inhibition of ECE (unknown origin); parameters: species or system Homo sapiens
# [9] = Cytotoxicity against human Lu1 cells; assay type: functional; conditions: read-out: ED50 (the source's name)
# Col2 = test: Cytotoxicity against human Col2 cells; assay type: functional; conditions: read-out: ED50 (the source's name)
# KB [10] = test: Cytotoxicity against human KB cells; assay type: functional; conditions: read-out: ED50 (the source's name)
# LNCaP = test: Cytotoxicity against human LNCaP cells; assay type: functional; conditions: read-out: ED50 (the source's name)
# Acetylcholinesterase [11] = target: Acetylcholinesterase (Homo sapiens, UniProt P22303); test: Inhibition of recombinant human AChE assessed as hydrolysis of acetylthiocholine by Ellman's method
# Cannabinoid receptor 2 = Cannabinoid receptor 2 (Homo sapiens, UniProt P34972); test: Binding affinity to CB2 (unknown origin)
# Plasmodium falciparum [12] = test: Antimalarial activity against chloroquine-susceptible Plasmodium falciparum 3D7; assay type: functional, organism-based
# Plasmodium falciparum [13] = test: Antimalarial activity against chloroquine-resistant Plasmodium falciparum Dd2; assay type: functional, organism-based
# Rattus norvegicus = test: Antiinflammatory activity in rat assessed as inhibition of the carrageenan-induced right hind paw edema at 0.1 mmol/kg; assay type: functional; parameters: scale not given: the % may be the effect or the level left
# Acetylcholinesterase [14] = target: T1, Acetylcholinesterase (Electrophorus electricus, UniProt O42275); test: Competitive inhibition of electric eel acetyl cholinesterase measured for 3 mins by Ellman's method
# Acetylcholinesterase [15] = target: T1, Acetylcholinesterase; test: Inhibition of electric eel AChE (type VI-S) using acetylthiocholine iodide as substrate preincubated for 15 mins followed by substrate addition by Ellman's method
# [16] = tested on: Human immunodeficiency virus 1; test: Antiviral activity against HIV-1 3B in human H9 cells incubated for 4 days by ELISA; assay type: functional, organism-based; conditions: Human immunodeficiency virus 1, 3B, H9, 96 h
# [17] = Therapeutic index, ratio of IC50 for human H9 cells to EC50 for HIV-1 3B in human H9 cells; assay type: toxicity, cell-based; conditions: read-out: Ratio IC50/EC50
# Leishmania major = test: Antileishmanial activity against Leishmania major promastigotes assessed as inhibition of [3H]thymidine uptake preincubated for 2 hrs followed by addition of [3H]thymidine measured after 18 hrs by scintillation counting; assay type: functional, organism-based
# Acetylcholinesterase (Homo sapiens, UniProt P22303), sequence (P22303 whole entry): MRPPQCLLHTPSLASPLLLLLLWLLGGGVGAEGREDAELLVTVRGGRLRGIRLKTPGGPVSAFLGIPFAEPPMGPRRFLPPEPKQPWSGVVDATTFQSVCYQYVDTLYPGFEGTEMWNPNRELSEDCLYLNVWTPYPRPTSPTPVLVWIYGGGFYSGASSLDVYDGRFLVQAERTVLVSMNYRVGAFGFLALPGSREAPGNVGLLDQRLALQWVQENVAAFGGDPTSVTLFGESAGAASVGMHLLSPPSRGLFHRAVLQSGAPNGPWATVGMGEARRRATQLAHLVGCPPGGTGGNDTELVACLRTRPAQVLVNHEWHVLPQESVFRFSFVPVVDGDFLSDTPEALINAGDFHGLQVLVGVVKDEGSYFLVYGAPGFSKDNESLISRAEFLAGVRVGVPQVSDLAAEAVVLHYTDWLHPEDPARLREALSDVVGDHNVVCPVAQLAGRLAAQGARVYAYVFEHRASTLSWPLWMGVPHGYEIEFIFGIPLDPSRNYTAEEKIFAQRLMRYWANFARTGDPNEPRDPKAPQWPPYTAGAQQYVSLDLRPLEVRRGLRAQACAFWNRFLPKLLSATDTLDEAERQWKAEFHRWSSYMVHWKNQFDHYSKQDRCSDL
# T1 sequence (O42275 whole entry): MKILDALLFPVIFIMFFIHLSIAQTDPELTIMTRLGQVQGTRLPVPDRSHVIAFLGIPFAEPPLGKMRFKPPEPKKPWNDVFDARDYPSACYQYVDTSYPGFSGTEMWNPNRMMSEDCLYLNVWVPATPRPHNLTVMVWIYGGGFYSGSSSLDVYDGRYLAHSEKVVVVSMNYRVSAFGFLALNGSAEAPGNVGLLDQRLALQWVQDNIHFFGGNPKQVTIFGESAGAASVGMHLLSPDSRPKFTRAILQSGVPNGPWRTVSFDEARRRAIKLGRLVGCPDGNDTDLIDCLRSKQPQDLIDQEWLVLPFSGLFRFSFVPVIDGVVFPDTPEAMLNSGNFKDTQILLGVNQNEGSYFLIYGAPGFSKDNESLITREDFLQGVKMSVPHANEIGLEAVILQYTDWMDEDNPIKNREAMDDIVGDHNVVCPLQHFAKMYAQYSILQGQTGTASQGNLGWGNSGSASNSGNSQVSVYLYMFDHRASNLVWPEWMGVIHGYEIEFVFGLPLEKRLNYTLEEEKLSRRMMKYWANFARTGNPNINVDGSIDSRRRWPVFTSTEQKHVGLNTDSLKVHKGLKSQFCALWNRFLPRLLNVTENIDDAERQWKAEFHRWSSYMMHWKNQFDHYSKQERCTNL
# Cannabinoid receptor 2, sequence (P34972 whole entry): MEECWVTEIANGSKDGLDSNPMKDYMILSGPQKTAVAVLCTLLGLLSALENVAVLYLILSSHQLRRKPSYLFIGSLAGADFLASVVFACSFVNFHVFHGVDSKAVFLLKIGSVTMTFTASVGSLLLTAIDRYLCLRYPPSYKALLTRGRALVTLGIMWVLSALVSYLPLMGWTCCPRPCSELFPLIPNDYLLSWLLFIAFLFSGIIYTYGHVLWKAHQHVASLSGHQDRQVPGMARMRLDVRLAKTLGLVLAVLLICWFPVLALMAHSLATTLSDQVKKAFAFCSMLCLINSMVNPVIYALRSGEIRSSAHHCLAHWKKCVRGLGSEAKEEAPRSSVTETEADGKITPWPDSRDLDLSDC
# 5-hydroxytryptamine receptor 1B, sequence (P28564 whole entry): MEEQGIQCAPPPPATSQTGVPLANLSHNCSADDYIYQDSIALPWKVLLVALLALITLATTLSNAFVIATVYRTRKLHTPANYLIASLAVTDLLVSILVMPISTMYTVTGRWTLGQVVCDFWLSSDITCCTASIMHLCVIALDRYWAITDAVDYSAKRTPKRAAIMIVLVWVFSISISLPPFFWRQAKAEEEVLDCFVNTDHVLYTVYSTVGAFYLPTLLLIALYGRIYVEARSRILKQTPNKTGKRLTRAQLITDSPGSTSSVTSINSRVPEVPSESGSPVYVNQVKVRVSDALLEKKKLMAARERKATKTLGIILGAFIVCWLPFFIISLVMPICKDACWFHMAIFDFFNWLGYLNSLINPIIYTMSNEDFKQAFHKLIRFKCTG
smiles,measurement,setting,value
C1=C(CN2CCOCC2)COc2c1cccc2OCC1COCCN1 (stereo unspecified),Ki,[1],47 nM
same,Ki,[2],630 nM
same,Ratio Ki,[3],13
C=C(C)C(O)Cc1c(O)c(C(=O)C(C)CC)c(O)c2c(CCC)cc(=O)oc12 (stereo unspecified),IC50,KB [4],4 µg/mL
O=C(Oc1cccc(Cl)c1)c1cc2cc(CCl)ccc2oc1=O,Ratio,[5],7.6 10^5/M/s
O=C(Oc1cccc(Cl)n1)c1cc2cc(CCl)ccc2oc1=O,Ratio,[6],1.1 10^5/M/s
CC(C)CC(=O)N(C)CCc1ccc2c(c1)C=CC(C)(C)O2,Activity,Planktothrix perornata,10 µM
same,IC50,Planktothrix perornata; Planktothrix perornata,2300 nM
same,Activity,[7],100 µM
same,IC50,[7]; Selenastrum capricornutum,12600 nM
CC1(C)C=Cc2c(ccc3c2O[C@H](O)[C@H]2c4ccc(O)cc4O[C@@H]32)O1,IC50,[8],9000 nM
C=C(C)C(O)Cc1c(O)c(C(=O)C(C)C)c(O)c2c(-c3ccccc3)cc(=O)oc12 (stereo unspecified),IC50,KB [4],4 µg/mL
CC(C)=CCc1c(O)c(C(=O)CC(C)CO)c2oc(=O)cc(-c3ccccc3)c2c1O (stereo unspecified),EC50,[9],11.1 µg/mL
same,EC50,Col2,11.1 µg/mL
same,EC50,KB [10],11.1 µg/mL
same,EC50,LNCaP,11.1 µg/mL
COc1cc2cc(-c3ccc(CN(C)Cc4ccccc4)cc3)c(=O)oc2cc1OC,Ki,Acetylcholinesterase [11],44.5 nM
CCCCCCC(C)(C)c1cc(O)c2c(c1)oc(=O)c1ccc(OC)cc12,Ki,Cannabinoid receptor 2,6.7 nM
Cc1cccc2oc(=O)c3c(c12)O[C@H](C)[C@@]3(C)CC(=O)C1OC1(C)C (stereo partly specified),IC50,Plasmodium falciparum [12],> 50000 nM
same,IC50,Plasmodium falciparum [13],> 50000 nM
COc1ccc2c(c1)c(CC(=O)O)c(C)n2C(=O)c1ccc(Cl)cc1 [INDOMETHACIN],Activity,Rattus norvegicus,47%
CC(C)=CCCC1(C)C=Cc2c(cc(O)c3c(=O)c4cccc(O)c4oc23)O1 (stereo unspecified),Ki,Acetylcholinesterase [14],1900 nM
same,IC50,Acetylcholinesterase [15],8470 nM
same,Ki,Acetylcholinesterase [15],3430 nM
CC(C)=CCC/C(C)=C/CC[C@@]1(C)C=Cc2c(cc(C)c(C(=O)O)c2O)O1 [DAURICHROMENIC ACID],EC50,[16],5.67 µg/mL
same,selectivity ratio,[17],3.71
CCN(Cc1ccccc1)Cc1ccc(-c2cc3cc(OC)c(OC)cc3oc2=O)cc1,Ki,Acetylcholinesterase [11],10.5 nM
CC(C)CC(=O)c1c(O)cc(O)c2c(-c3ccccc3)cc(=O)oc12 [ISODISPAR B],IC50,KB [4],4 µg/mL
CCOC(=O)C1(CC)Oc2ccc3c(C)cc(=O)oc3c2O1 (stereo unspecified),Activity,Rattus norvegicus,55%
Cc1cccc2oc(=O)c3c(c12)O[C@@H](C)[C@@]3(C)CC(=O)C1OC1(C)C (stereo partly specified),IC50,Leishmania major,13400 nM
same,IC50,Plasmodium falciparum [12],> 50000 nM
same,IC50,Plasmodium falciparum [13],> 50000 nM
CCC(C)c1cc(=O)oc2c(C(=O)CC(C)CO)c(O)c(CC=C(C)C)c(O)c12 (stereo unspecified),EC50,[9],11.1 µg/mL
same,EC50,Col2,11.1 µg/mL
same,EC50,KB [10],11.1 µg/mL
same,EC50,LNCaP,11.1 µg/mL
COc1cc2cc(-c3ccc(C[N+](C)(C)Cc4ccccc4)cc3)c(=O)oc2cc1OC,Ki,Acetylcholinesterase [11],10.5 nM
C=C(C)C(O)Cc1c(O)c(C(=O)C(C)CC)c(O)c2c(-c3ccccc3)cc(=O)oc12 (stereo unspecified),IC50,KB [4],4 µg/mL
COc1cc2cc(-c3ccc(CN(CCO)Cc4ccccc4)cc3)c(=O)oc2cc1OC,Ki,Acetylcholinesterase [11],10.5 nM
CCCCCCC(C)(C)c1cc(O)c2c(c1)oc(=O)c1ccc(C)cc12,Ki,Cannabinoid receptor 2,3.1 nM
Cc1cc(=O)oc2c3c(ccc12)OC(C)(c1ccccc1)O3 (stereo unspecified),Activity,Rattus norvegicus,55%
